Measurements from patent US11059815B2, “Synthesis of small molecule histone deacetylase 6 degraders, compounds formed thereby, and pharmaceutical compositions containing them” (Wisconsin Alumni Research Foundation, priority 2018, dated 2021).

Key:
[1] = molecular target: T1, HDAC6 (Homo sapiens, UniProt Q9UBN7); experiment: In-cell ELISA of HDAC6 protein level in MM1S cells; assay type: cell-based; settings: 6 h, 100% minus mean (± SD) relative HDAC6 expression; for inhibition at 0.01 µM / inhibition at 0.1 µM: MM1.S; for inhibition at 0.01 µM: n=3, read-out: Degradation (%) 10 nM; for inhibition at 0.1 µM: n=3, read-out: Degradation (%) 100 nM
T1 construct: endogenous in cells; host or cells: MM1S (ATCC CRL-2974)
T1 sequence (Q9UBN7 1-1215): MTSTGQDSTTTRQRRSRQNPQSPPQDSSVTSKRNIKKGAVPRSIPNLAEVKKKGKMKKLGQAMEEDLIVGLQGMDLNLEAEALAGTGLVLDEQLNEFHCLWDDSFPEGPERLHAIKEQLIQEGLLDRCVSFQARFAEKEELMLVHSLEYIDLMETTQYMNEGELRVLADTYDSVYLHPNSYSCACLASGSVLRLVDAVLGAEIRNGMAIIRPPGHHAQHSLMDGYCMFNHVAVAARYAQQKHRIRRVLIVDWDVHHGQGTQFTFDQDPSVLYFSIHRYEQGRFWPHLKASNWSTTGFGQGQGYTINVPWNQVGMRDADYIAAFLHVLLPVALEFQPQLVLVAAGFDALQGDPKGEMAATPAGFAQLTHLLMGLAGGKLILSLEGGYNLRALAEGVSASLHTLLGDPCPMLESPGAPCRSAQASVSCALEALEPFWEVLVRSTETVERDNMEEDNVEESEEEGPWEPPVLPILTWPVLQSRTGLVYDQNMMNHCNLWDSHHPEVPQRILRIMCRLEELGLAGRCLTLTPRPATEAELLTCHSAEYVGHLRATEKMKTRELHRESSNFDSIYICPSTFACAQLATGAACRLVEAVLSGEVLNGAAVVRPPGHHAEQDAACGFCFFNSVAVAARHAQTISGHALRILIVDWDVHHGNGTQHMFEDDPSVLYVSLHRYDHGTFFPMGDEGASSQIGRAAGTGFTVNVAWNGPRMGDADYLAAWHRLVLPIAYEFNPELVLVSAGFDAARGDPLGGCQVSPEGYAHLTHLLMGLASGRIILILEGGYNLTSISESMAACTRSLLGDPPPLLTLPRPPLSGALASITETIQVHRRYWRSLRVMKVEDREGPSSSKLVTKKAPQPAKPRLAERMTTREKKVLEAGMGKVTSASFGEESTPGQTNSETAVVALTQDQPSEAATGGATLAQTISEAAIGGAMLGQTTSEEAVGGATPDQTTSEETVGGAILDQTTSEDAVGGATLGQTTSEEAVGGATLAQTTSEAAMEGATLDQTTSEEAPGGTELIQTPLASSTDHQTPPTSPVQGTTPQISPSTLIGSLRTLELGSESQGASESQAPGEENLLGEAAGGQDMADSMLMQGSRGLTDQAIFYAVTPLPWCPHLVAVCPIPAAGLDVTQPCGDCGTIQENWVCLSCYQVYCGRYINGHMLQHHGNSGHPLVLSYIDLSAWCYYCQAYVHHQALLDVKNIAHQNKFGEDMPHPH
Procedure: FIG. 9 is a histogram depicting the results of screening of compounds for HDAC6 degradation activity by in-cell ELISA. MM1S cells were treated with compounds at 100 nM (blue bars) or 10 nM (red bars) for 6 h. Data was normalized to vehicle (DMSO)-treated group and the bar graph represents as mean of relative HDAC6 protein level (n=3) with ±SD as error bar. Statistical significance was analyzed by one-way ANOVA. Not significant (ns) P>0.05, *P≤0.05, **P≤0.01, ***P≤0.001, ****P≤0.0001.
FIG. 11 is a graph depicting dose response of selected degrader candidates. MM1S cells were treated for 6 h and analyzed by in-cell ELISA. Data was normalized to vehicle (DMSO)-treated group and dot plot represented as mean relative expression (n=3) with ±SD as error bar. Nonlinear fitting of inhibitor concentration vs. response (three parameters) was generated by GraphPad Prism with R2 from 0.97 to 0.99.
FIG. 15 is a histogram depicting relative HDAC6 expression as a function of linker length for compounds 3a through 3k as described in the Examples section, Part 2. Human MM1S cells were treated with 100 nM degraders for 6 hours and analyzed by in-cell ELISA assay.
FIG. 17 is a dose-response curve for degraders 3j (n=1), 3k (n=12) and 2, at concentrations from 1 nM to 300 nM for 4 h in MM1S. See the Examples, Part 2.
To screen the new series of degraders, an in-cell ELISA assay was developed and validated. The compounds were treated at 100 nM and 10 nM in MM1S cells for 6 h. Resulting cells were then fixed and analyzed by in-cell ELISA. […] Degraders including 1 at 100 nM degraded 73.5% to 85.0% of HDAC6 with minor difference. At 10 nM concentration of compounds, obvious structure-activity-relationship (SAR) was observed. […] For example, 12d, 12h, 12i, 12o and 12p all achieved about 70% degradation. Among the C4-linked series, 12d with medium length linker (5+1) achieved most degradation in sub-series 12a-e (m=1). […] Among C5-linked series, the potency of sub-series 12l-p (m=1) increased with the linker length. […] It appeared that both the distance and linking positions contributed to the degradation efficiency. The rigid triazole ring in the middle of the linker likely modulated the plasticity of degrader-bridged ternary complex.
The amount of cellular HDAC6 was measured in response to concentrations of compounds from 0.1 nM to 1 μM. […] The new degraders had single-digit nanomolar DC50, which was about 3 to 5 fold of improvement from 9.12 nM of degrader 1. […] As discussed above, most PROTACs were designed to avoid degrading other proteins except the targeted POIs. However, in these studies, it was hypothesized that HDAC6 degraders with IKZF degradation will have enhanced anti-proliferation effect MM1S cells.
MM1S cells were harvested and plated with 5×10^5 cells in 100 μL media per well 96-wells plate. After overnight seeding, 25 μL media containing 5× dosing concentration of the compounds or vehicle was added to each well. After 6-hour treatment at 37° C. in a humidified 5% CO2 atmosphere, cells were fixed by adding 125 μL 8% formaldehyde in TBS buffer (137 mM NaCl, 25 mM Tris, 2.7 mM potassium chloride, pH 7.6) and incubated at room temperature (RT) for 15 minutes. Removal of fixing solution was followed by once rinse and twice washes with TBS-T washing buffer (137 mM NaCl, 20 mM Tris, 0.1% Tween, pH 7.6). Cells were then permeabilized by adding 100 μL 0.1% Triton-X in TBS and incubated at RT for 15 minutes. Removal of permeabilizing solution was followed by once rinse and once wash with TBS-T. Cellular endogenous peroxidases were quenched by adding 100 μL 1% H2O2 in TBS and incubation at RT for 20 minutes. Removal of quenching solution was followed by once rinse and once wash with TBS-T. Non-specific binding sites were blocked by adding […] 5% BSA in TBS-T (with 0.02% NaN3) and incubation at 4° C. overnight. […]

[2] = test system: acetylated histone H3; experiment: Western blot of acetylated histone H3 in MM1S cells; assay type: cell-based, human
Source text: (§1) FIGS. 12A, 12B, and 12C are a series of western blots showing that degrader 12d selectively promotes HDAC6 degradation in MM1S cells.
(§2) To further examine the selectivity of the new generation of HDAC6 degraders, compound 12d was compared to SAHA, Next-A, degrader 1 and pan-inhibitor 2 for change of acetylated a-tubulin and acetylated histone H3.
(§3) When the cells reached 90% confluence, they were harvested and plated 1×10^6 cells per well in 6-well plate. After overnight seeding, the cells were treated with a solution of compounds or vehicle in culture medium. The culture medium was removed after treatment and then washed twice with cold PBS. To obtain whole cell lysate, all cells were treated with RIPA lysis buffer (25 mM Tris, pH 7-8, 150 mM NaCl, 0.1% SDS, 0.5% sodium deoxycholate, 1% Triton X-100, protease inhibitor cocktail (Roche, 1 tablet per 10 mL) and 1 mM PMSF) on ice for 10 minutes. Supernatant was collected after spinning down at 16,000 g at 4° C. for 15 minutes. Protein concentration was measured by using the Pierce BCA protein assay (Thermo Fisher Scientific). […] The Immunoblot was generated by ChemiDoc MP Imaging Systems (Bio-Rad) and analyzed by Image J software (only available for download online at https://imagej.net/Downloads). […]

[3] = test system: acetylated tubulin; experiment: Western blot of acetylated tubulin in MM1S cells; assay type: cell-based, human; settings: 100 nM
Source text: as §1, §2
as §3, with “Scientific). About 10-40 μg of total protein was mixed with 4× Laemmli Loading Dye (250 mM Tris, pH 6.8, 40% glycerol, 5% SDS, 0.005% bromophenol blue, 4% BME) and heated at 95-100° C. for 5 minutes. The heated sample was then subjected to 7.5-12% SDS-PAGE and transferred to PVDF membrane (Bio-Rad,). The membrane was blocked in 5% non-fat milk (Bio-rad) in TBS-T washing buffer (137 mM NaCl, 20 mM Tris, 0.1% Tween) and then incubated with primary antibodies at 4° C. overnight.” for “Scientific).”
The activity of all eleven “n+4” VHL-based potential degraders to suppress HDAC6 expression was tested at 100 nM and compared to CRBN degrader 2 in MM1S cells. The resulting cells were analyzed for HDAC6 expression by in-cell ELISA (FIG. 15). […]

Compound	inhibition at 0.01 µM ([1]; 10 nM)	inhibition at 0.1 µM ([1]; 100 nM)	also measured
CCCCN(Cc1ccc(C(=O)NO)cc1)C(=O)Nc1ccc(OCCCCn2cc(CNc3cccc4c3C(=O)N(C3CCC(=O)NC3=O)C4=O)nn2)cc1 (stereo not drawn) [Compound 12n, 4-((1-butyl-3-(4-(4-(4-(((2-(2,6-dioxopiperidin-3-yl)-1,3-dioxoisoindolin-4-yl)amino)methyl)-1H-1,2,3-triazol-1-yl)butoxy)phenyl)ureido)methyl)-N-hydroxybenzamide]	–	–	Degradation (%) 10 nM ([1]; 10 nM, n=3): 63.3 ± 0.8%; Degradation (%) 100 nM ([1]; 100 nM, n=3): 80.9 ± 0.4%
CCCCN(Cc1ccc(C(=O)NO)cc1)C(=O)Nc1ccc(OCCCCCn2cc(CNc3ccc4c(c3)C(=O)N(C3CCC(=O)NC3=O)C4=O)nn2)cc1 (stereo not drawn) [Compound 12o, 4-((1-butyl-3-(4-((5-(4-(((2-(2,6-dioxopiperidin-3-yl)-1,3-dioxoisoindolin-5-yl)amino)methyl)-1H-1,2,3-triazol-1-yl)pentyl)oxy)phenyl)ureido)methyl)-N-hydroxybenzamide]	~70%	84.7 ± 1%	–
CCCCN(Cc1ccc(C(=O)NO)cc1)C(=O)Nc1ccc(OCCCCCCn2cc(CNc3ccc4c(c3)C(=O)N(C3CCC(=O)NC3=O)C4=O)nn2)cc1 (stereo not drawn) [Compound 12p, 4-((1-butyl-3-(4-((6-(4-(((2-(2,6-dioxopiperidin-3-yl)-1,3-dioxoisoindolin-5-yl)amino)methyl)-1H-1,2,3-triazol-1-yl)hexyl)oxy)phenyl)ureido)methyl)-N-hydroxybenzamide]	~70%	83.5 ± 0.5%	–
CCCCN(Cc1ccc(C(=O)NO)cc1)C(=O)Nc1ccc(OCCn2cc(CCCNc3ccc4c(c3)C(=O)N(C3CCC(=O)NC3=O)C4=O)nn2)cc1 (stereo not drawn) [Compound 12q, 4-((1-butyl-3-(4-(2-(4-(3-((2-(2,6-dioxopiperidin-3-yl)-1,3-dioxoisoindolin-5-yl)amino)propyl)-1H-1,2,3-triazol-1-yl)ethoxy)phenyl)ureido)methyl)-N-hydroxybenzamide]	47.2 ± 4.8%	80.4 ± 0.3%	–
CCCCN(Cc1ccc(C(=O)NO)cc1)C(=O)Nc1ccc(OCCCn2cc(CCCNc3ccc4c(c3)C(=O)N(C3CCC(=O)NC3=O)C4=O)nn2)cc1 (stereo not drawn) [Compound 12r, 4-((1-butyl-3-(4-(3-(4-(3-((2-(2,6-dioxopiperidin-3-yl)-1,3-dioxoisoindolin-5-yl)amino)propyl)-1H-1,2,3-triazol-1-yl)propoxy)phenyl)ureido)methyl)-N-hydroxybenzamide]	60.9 ± 0.4%	81.9 ± 0.4%	–
O=C(CCCCCCC(=O)Nc1ccccc1)NO [SAHA, Suberoylanilide hydroxamic acid, reference compound]	–	–	change of acetylated histone H3 [2]: strong acetylated histone H3 signal; change of acetylated tubulin [3]: didn't
